Measurements taken from PubChem BioAssay AID1671247.

Target: Casein kinase I isoform gamma-2 (Homo sapiens) (UniProt P78368)
Experiment: PubChem AID 1671247
Conditions: Z'-LYTE FRET kinase activity assay

Casein kinase I isoform gamma-2 (Homo sapiens), sequence (P78368 whole entry, looked up, canonical isoform): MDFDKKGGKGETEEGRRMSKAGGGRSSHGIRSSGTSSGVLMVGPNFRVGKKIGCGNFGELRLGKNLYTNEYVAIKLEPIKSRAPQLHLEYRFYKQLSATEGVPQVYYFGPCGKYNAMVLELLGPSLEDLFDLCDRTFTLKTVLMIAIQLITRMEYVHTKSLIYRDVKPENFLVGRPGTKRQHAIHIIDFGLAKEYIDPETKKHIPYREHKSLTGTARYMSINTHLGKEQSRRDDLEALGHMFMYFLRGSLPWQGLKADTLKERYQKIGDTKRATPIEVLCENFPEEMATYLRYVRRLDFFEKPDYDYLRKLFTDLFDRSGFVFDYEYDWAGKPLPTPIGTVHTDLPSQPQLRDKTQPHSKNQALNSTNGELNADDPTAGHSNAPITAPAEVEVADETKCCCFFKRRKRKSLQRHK

Compound: Brc1c(Br)c(Br)c2n[nH]nc2c1Br
- IC50: 26.5 µM
